IC50 data for one compound are collected here from patent US20070093505A1, “2,3-Substituted 5,6-diaryl-pyrazine derivatives as cb1 modulators” (ASTRAZENECA AB, priority 2003, published 2007).

Molecules are shown by their SMILES. pIC50: −log10 of the molar value.

The assay has as its target T1, hCB1 (Homo sapiens, UniProt P21554).
T1 construct: expressed in transfected cells
In words: [35S]-GTPγS binding assay on membranes from cells stably transfected with the CB1 gene, inhibition of agonist CP55940. In kind it is biochemical. As to conditions: EC80 concentration of agonist CP55940, membranes of CB1-transfected cells. From the text: Compounds of the present invention are active against the receptor product of the CB1 gene. The compounds of the present invention are active at the CB1 receptor (IC50<1 micromolar). Most preferred compounds have IC50<200 nanomolar. The affinity of the compounds of the invention for central cannabinoid receptors is demonstrable in methods described in Devane et al., Molecular Pharmacology, 1988, 34,605 or those described in WO01/70700 or EP 656354. Alternatively the assay may be performed as follows.
10 μg of membranes prepared from cells stably transfected with the CB1 gene were suspended in […] of 100 mM NaCl, 5 mM MgCl2, 1 mM EDTA, 50 mM HEPES (pH 7.4), 1 mM DTT, 0.1% BSA and 100 μM GDP. To this was added an EC80 concentration of agonist (CP55940), the required concentration of test compound and 0.1 μCi [^35S]-GTPγS. […] Filters were then covered with scintilant and counted for the amount of [^35S]-GTPγS retained by the filter.
Activity is measured in the absence of all ligands (minimum activity) or in the presence of an EC80 concentration of CP55940 (maximum activity). […] At various concentrations of novel ligand, activity is calculated as a percentage of the maximum activity and plotted. The data are fitted using the equation y=A+((B−A)/1+((C/x)UD)) and the IC50 value determined as the concentration required to give half maximal inhibition of GTPγS binding under the conditions used.

T1 sequence (P21554 whole entry): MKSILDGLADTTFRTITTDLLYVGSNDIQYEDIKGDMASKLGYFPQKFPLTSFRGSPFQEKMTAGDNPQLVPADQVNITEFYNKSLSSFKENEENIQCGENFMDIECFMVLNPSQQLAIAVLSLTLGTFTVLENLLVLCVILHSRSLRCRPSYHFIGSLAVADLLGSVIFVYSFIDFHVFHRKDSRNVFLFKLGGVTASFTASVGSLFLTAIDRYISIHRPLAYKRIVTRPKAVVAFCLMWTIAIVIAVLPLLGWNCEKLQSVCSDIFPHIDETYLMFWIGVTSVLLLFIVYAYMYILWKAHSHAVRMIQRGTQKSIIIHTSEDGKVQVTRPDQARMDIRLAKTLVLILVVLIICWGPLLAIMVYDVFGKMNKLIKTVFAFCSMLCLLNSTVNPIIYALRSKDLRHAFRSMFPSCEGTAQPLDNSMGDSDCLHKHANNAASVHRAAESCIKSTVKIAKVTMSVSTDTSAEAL

As to `CC1COC(c2nc(-c3ccc(Cl)cc3)c(-c3ccc(Cl)cc3)nc2C(=O)OC(C)(C)C)=N1` (stereo not shown) [Example 5, 5,6-bis(4-chlorophenyl)-3-(4-methyl-4,5-dihydrooxazol-2-yl)-pyrazine-2-carboxylic acid tert-butylester], the pIC50 was 8.74.
